From US20250221979A1, “NOVEL HETEROCYCLIC COMPOUND” (SHOUYAO HOLDINGS (BEIJING) CO., LTD., priority 2022, published 2025) come the findings set out here.

The structures appear in SMILES notation. Structures can show the parent of a compound that is named as a salt.

The target in the experiment is human MAT2A enzyme (Homo sapiens (Human), UniProt P31153). Kind of experiment: In vitro enzymatic inhibition activity assay on MAT2A (PiColorLock phosphate detection). The class given is biochemical. To be noted: purified human MAT2A 10 nM, ATP 50 μM, L-methionine 100 μM, 6 h at 23° C.; read-out: MAT2A inhibitory activity IC50. Here is the method: Enzymatic activity assays of compounds of this patent against MAT2A (to detect half inhibitory concentration IC50 values of the compounds) were performed using the phosphate detection kit PiColorLockTM (ab270004, purchased from Abcam). This method utilized the principle that purified human MAT2A enzyme catalyzes the formation of S-adenosylmethionine (SAM) from L-methionine and ATP to release free phosphate, and used the spectrophotometric method to quantify phosphate, so as to determine the enzymatic activity of MAT2A. Compounds were diluted in a 10-fold gradient starting at 1 mM with 100% DMSO (for a total of 8 concentrations) and 2 μL of each concentration was added to 48 μL of reaction buffer (50 mM Tris-HCl PH 7.5, 50 mM KCl, 10 mM MgCl2, 0.01% Brij-35, 0.01% BSA, 1 mM DTT) and mixed well. The final diluted compound was prepared, and 5 μL of MAT2A enzyme (final concentration of 10 nM), 5 μL of ATP (final concentration of 50 μM), and 5 μL of L-methionine (final concentration of 100 μM) were added to each well of a 384-well plate (#3701, purchased from CORNING). After the 384-well plate was placed in the incubator at 23° C. for 6 h, 5 μL of PiColorLock reagent diluted Accelerator (dilution ratio 1:100) was added to each well, and the reaction was stopped by incubating in the incubator at 23° C. for 5 min. 2 μL of Stabiliser was added, the absorbance was read at 630 nm on BMG CLARIOstar, and the IC50 value of the compound was calculated by using GraphPad Prism software.
Sequence of human MAT2A enzyme (P31153 whole entry): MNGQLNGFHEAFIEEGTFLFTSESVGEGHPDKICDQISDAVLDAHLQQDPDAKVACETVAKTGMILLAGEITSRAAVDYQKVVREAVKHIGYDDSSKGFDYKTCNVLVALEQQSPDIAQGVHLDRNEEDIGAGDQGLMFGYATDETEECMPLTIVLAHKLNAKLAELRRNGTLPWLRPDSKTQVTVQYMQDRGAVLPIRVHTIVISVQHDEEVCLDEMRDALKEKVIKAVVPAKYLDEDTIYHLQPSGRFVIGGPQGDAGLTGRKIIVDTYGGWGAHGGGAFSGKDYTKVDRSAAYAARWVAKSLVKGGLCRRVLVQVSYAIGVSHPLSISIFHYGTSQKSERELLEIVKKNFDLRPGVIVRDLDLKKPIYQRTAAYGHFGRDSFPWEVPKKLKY
Under the conditions of this experiment, the inhibition of MAT2A by test compounds can be expressed as an IC50 value for the inhibition of the level of phosphate production during the enzymatic reaction.
Usually IC50 stands for the concentration that inhibits the measured activity by half. Consider `CNc1ccc(-n2c(=O)c(C(=O)OC)c(N)c3ccc(C(F)(F)F)cc32)cc1` [Example 115, methyl 4-amino-1-(4-(methylamino)phenyl)-2-oxo-7-(trifluoromethyl)-1,2-dihydroquinoline-3-carboxylate hydrochloride], for which the IC50 stood at 2.89 nM.
Next, `COC(=O)c1c(N)c2ccc(C(F)(F)F)cc2n(-c2ccc(I)cc2)c1=O` [Example 125, methyl 4-amino-1-(4-iodophenyl)-2-oxo-7-(trifluoromethyl)-1,2-dihydroquinoline-3-carboxylate]: 2.67 nM; `COC(=O)c1c(N)c2ccc(C(F)(F)F)cc2n(-c2ccc3ocnc3c2)c1=O` [Example 128, methyl 4-amino-1-(benzo(2,1-d)(1,3)oxazol-5-yl)-2-oxo-7-(trifluoromethyl)-1,2-dihydroquinoline-3-carboxylate]: 3.49 nM.
As for `COC(=O)c1c(N)c2ccc(Br)cc2n(-c2ccc([N+](=O)[O-])cc2)c1=O` [Example 130, methyl 4-amino-2-oxo-7-bromo-1-(4-nitrophenyl)-1,2-dihydroquinoline-3-carboxylate], the half-inhibitory concentration (IC50) came to 5.99 nM.
In the case of `C=Cc1ccc(-n2c(=O)c(C(=O)OC)c(N)c3ccc(C(F)(F)F)cc32)cc1` [Example 132, methyl 4-amino-2-oxo-7-(trifluoromethyl)-1-(4-vinylphenyl)-1,2-dihydroquinoline-3-carboxylate], the IC50 was 4.91 nM.
Take `C#Cc1ccc(-n2c(=O)c(C(=O)OC)c(N)c3ccc(C(F)(F)F)cc32)cc1` [Example 133, methyl 4-amino-1-(4-ethynylphenyl)-2-oxo-7-(trifluoromethyl)-1,2-dihydroquinoline-3-carboxylate]: the half-inhibitory concentration (IC50) came out at 2.79 nM.
As to `COC(=O)c1c(N)c2ccc(C3CC3)cc2n(-c2ccc(Cl)cc2)c1=O` [Example 134, methyl 4-amino-1-(4-chlorophenyl)-7-cyclopropyl-2-oxo-1,2-dihydro quinoline-3-carboxylate], the IC50 amounted to 2.01 nM.
Take `COC(=O)c1c(N)c2ccc(C(F)(F)F)cc2n(-c2ccc3c(c2)CCC3O)c1=O` (stereo not shown) [Example 135, methyl 4-amino-1-(1-hydroxy-2,3-dihydro-1H-inden-5-yl)-2-oxo-7-(trifluoromethyl)-1,2-dihydroquinoline-3-carboxylate]: the half-maximal inhibitory concentration (IC50) was 8.85 nM.
Turning to `COC(=O)c1c(N)c2ccc(C(F)(F)F)cc2n(-c2ccc3c(c2)C(O)CC3)c1=O` (stereo not shown) [Example 137, methyl 4-amino-1-(3-hydroxy-2,3-dihydro-1H-inden-5-yl)-2-oxo-7-(trifluoromethyl)-1,2-dihydroquinoline-3-carboxylate], the IC50 came out at 3.34 nM.
Next, `CCc1ccccc1-n1c(=O)c(C(=O)OC)c(N)c2ccc(C(F)(F)F)cc21` [Example 145, methyl 4-amino-1-(2-ethylphenyl)-2-oxo-7-(trifluoromethyl)-1,2-dihydroquinoline-3-carboxylate]: 4.6 nM; `COC(=O)c1c(N)c2ccc(C(F)(F)F)cc2n(-c2ccc3c(c2)CCC3(C)O)c1=O` (stereo not shown) [Example 148, methyl 4-amino-1-(1-hydroxy-1-methyl-2,3-dihydro-1H-inden-5-yl)-2-oxo-7-(trifluoromethyl)-1,2-dihydroquinoline-3-carboxylate]: 2.83 nM.
The result for `COC(=O)c1c(N)c2ccc(C(F)(F)F)cc2n(-c2ccc(C)cc2C)c1=O` [Example 149, methyl 4-amino-1-(2,4-dimethylphenyl)-2-oxo-7-(trifluoromethyl)-1,2-dihydroquinoline-3-carboxylate] reads 3.12 nM; that for `COC(=O)c1c(N)c2ccc(C(F)(F)F)nc2n(-c2ccccc2)c1=O` [Example 150, methyl 4-amino-2-oxo-1-phenyl-7-(trifluoromethyl)-1,2-dihydro-1,8-naphthyridine-3-carboxylate], 1.66 nM.
For the molecule `COC(=O)c1c(N)c2ccc(C(F)(F)F)cc2n(-c2ccc(Cl)cc2C)c1=O` [Example 151, methyl 4-amino-1-(4-chloro-2-methylphenyl)-2-oxo-7-(trifluoromethyl)-1,2-dihydroquinoline-3-carboxylate], the IC50 was found to be 2.86 nM.
The result for `COC(=O)c1c(N)c2ccc(Br)cc2n(-c2ccc(Cl)cc2C)c1=O` [Example 152, methyl 4-amino-7-bromo-1-(4-chloro-2-methylphenyl)-2-oxo-1,2-dihydroquinoline-3-carboxylate] reads 1.64 nM; that for `COC(=O)c1c(N)c2ccc(C(F)(F)F)cc2n(-c2ccc3sccc3c2)c1=O` [Example 153, methyl 4-amino-1-(benzo[b]thiophen-5-yl)-2-oxo-7-(trifluoromethyl)-1,2-dihydroquinoline-3-carboxylate], 2.62 nM; that for `CCc1ccc(-n2c(=O)c(C(=O)OC)c(N)c3ccc(C(F)(F)F)cc32)cc1` [Example 155, methyl 4-amino-1-(4-ethylphenyl)-2-oxo-7-(trifluoromethyl)-1,2-dihydroquinoline-3-carboxylate], 1.93 nM.
Consider `COC(=O)c1c(N)c2ccc(C(F)(F)F)cc2n(-c2ccc(C(C)O)c(F)c2)c1=O` (stereo not shown) [Example 158, methyl 4-amino-1-(3-fluoro-4-(1-hydroxyethyl)phenyl)-2-oxo-7-(trifluoromethyl)-1,2-dihydroquinoline-3-carboxylate], for which the half-maximal inhibitory concentration (IC50) is 3.83 nM.
Next, `COC(=O)c1c(N)c2ccc(C(F)(F)F)cc2n(-c2cn[nH]c2)c1=O` [Example 159, methyl 4-amino-2-oxo-1-(1H-pyrazol-4-yl)-7-(trifluoromethyl)-1,2-dihydroquinoline-3-carboxylate]: 2.87 nM; `COC(=O)c1c(N)c2ccc(Br)cc2n(-c2cnc(Cl)cc2C)c1=O` [Example 161, methyl 4-amino-7-bromo-1-(6-chloro-4-methylpyridin-3-yl)-2-oxo-1,2-dihydroquinoline-3-carboxylate]: 4.67 nM; `COC(=O)c1c(N)c2ccc(C(F)(F)F)cc2n(-c2ccc(C=O)cc2)c1=O` [Example 164, methyl 4-amino-1-(4-formylphenyl)-2-oxo-7-(trifluoromethyl)-1,2-dihydroquinoline-3-carboxylate]: 7.58 nM.
For `COC(=O)c1c(N)c2ccc(Br)cc2n(-c2ccc(N)c3cnccc23)c1=O` [Example 178, methyl 4-amino-1-(8-aminoisoquinolin-5-yl)-7-bromo-2-oxo-1,2-dihydroquinoline-3-carboxylate], the IC50 worked out at 2.59 nM.
Next, `COC(=O)c1c(N)c2ccc(C(F)(F)F)cc2n(-c2ccc(N)nc2)c1=O` [Example 182, methyl 4-amino-1-(6-aminopyridin-3-yl)-2-oxo-7-(trifluoromethyl)-1,2-dihydroquinoline-3-carboxylate]: 1.16 nM.
Next, `C=Cc1ccc2c(N)c(C(=O)OC)c(=O)n(-c3cccc4cnccc34)c2c1` [Example 185, methyl 4-amino-1-(isoquinolin-5-yl)-2-oxo-7-vinyl-1,2-dihydroquinoline-3-carboxylate]: 8.94 nM; `COC(=O)c1c(N)c2ccc(C(F)(F)F)cc2n(-c2ccc3ccoc3c2)c1=O` [Example 187, methyl 4-amino-1-(1-benzofuran-6-yl)-2-oxo-7-(trifluoromethyl)-1,2-dihydroquinoline-3-carboxylate]: 0.76 nM; `[2H]C([2H])([2H])OC(=O)c1c(N)c2ccc(Br)cc2n(-c2ccc(N)cc2)c1=O` [Example 189, methyl-d3 4-amino-1-(4-aminophenyl)-7-bromo-2-oxo-1,2-dihydroquinolin-3-carboxylate]: 0.32 nM.
For `COC(=O)c1c(N)c2ccc(C(F)(F)F)cc2n(-c2cccc3ccncc23)c1=O` [Example 192, methyl 4-amino-1-(isoquinolin-8-yl)-2-oxo-7-(trifluoromethyl)-1,2-dihydro quinoline-3-carboxylate], the IC50 was 6.47 nM.
With `COC(=O)c1c(N)c2ccc(Br)cc2n(-c2cccc3nccn23)c1=O` [Example 195, methyl 4-amino-7-bromo-1-(imidazo(3,2-a)pyridin-5-yl)-2-oxo-1,2-dihydro quinoline-3-carboxylate], the IC50 turned out to be 4.91 nM.
Next, `COC(=O)c1c(N)c2ccc(C(F)(F)F)cc2n(-c2ccc3occc3c2)c1=O` [Example 196, methyl 4-amino-1-(6-benzofuran-5-yl)-2-oxo-7-(trifluoromethyl)-1,2-dihydro quinoline-3-carboxylate]: 0.81 nM.
The result for `COC(=O)c1c(N)c2ccc(Cl)nc2n(-c2cccc3cnccc23)c1=O` [Example 201, methyl 4-amino-7-chloro-1-(isoquinolin-5-yl)-2-oxo-1,2-dihydro-1,8-naphthyridine-3-carboxylate] reads 5.38 nM.
For `COC(=O)c1c(N)c2ccc(C(F)(F)F)nc2n(-c2cnc(Cl)cc2C)c1=O` [Example 204, methyl 4-amino-1-(6-chloro-4-methylpyridin-3-yl)-2-oxo-7-(trifluoromethyl)-1,2-dihydro-1,8-naphthyridine-3-carboxylate], the concentration for half-maximal inhibition (IC50) is 4.62 nM.
